# In ChEMBL document CHEMBL1201862, “PubChem BioAssay data set” (2004):
# Activity calls are given as the source filed them.
# Key:
# Oxytocin receptor = Oxytocin receptor (Homo sapiens, UniProt P30559); assay: Counterscreen for vasopressin 1 receptor (V1R) agonists: Fluorescence-based cell-based high throughput dose response assay for agonists of the Oxytocin Receptor (OXTR). [Related pubchem assays: 2435 (Primary screen (OXTR agonists in singlicate)), 434964 (Confirmation screen (V1R agonists in triplicate)), 434969 (Counterscreen (OXTR agonists in …; format: functional
# Sequence of Oxytocin receptor (P30559 whole entry): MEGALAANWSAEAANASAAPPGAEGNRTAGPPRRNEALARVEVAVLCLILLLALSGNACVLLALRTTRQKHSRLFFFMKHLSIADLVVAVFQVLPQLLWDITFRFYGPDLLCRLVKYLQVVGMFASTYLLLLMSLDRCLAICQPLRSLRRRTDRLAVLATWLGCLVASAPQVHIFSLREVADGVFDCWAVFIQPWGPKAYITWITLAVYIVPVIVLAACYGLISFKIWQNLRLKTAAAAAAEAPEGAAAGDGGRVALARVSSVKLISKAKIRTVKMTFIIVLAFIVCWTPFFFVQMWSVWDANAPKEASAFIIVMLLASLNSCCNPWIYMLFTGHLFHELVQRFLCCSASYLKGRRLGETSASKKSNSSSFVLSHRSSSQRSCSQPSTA
# Vasopressin V1a receptor = Vasopressin V1a receptor (Homo sapiens, UniProt P37288); assay: Fluorescence-based cell-based high throughput dose response screening assay for agonists of the vasopressin 1 receptor (V1R).; format: functional
# Sequence of Vasopressin V1a receptor (P37288 whole entry, the tested form may be a part): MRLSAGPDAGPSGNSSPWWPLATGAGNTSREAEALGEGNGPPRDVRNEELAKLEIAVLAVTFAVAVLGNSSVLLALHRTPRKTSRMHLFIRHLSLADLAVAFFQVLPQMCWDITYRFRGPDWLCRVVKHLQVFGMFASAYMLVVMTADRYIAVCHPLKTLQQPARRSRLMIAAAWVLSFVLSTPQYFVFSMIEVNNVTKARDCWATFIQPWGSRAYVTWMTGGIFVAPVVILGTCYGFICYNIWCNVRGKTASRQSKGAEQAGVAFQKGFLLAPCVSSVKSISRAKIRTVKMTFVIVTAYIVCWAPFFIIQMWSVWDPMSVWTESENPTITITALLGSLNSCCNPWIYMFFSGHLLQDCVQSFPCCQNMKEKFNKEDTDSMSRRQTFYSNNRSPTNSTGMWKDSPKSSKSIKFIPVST
# [1] = target: T1, RNA-binding protein pos-1 (Caenorhabditis elegans, UniProt G5EF15); assay: disruptors of C. elegans POS-1 RNA interaction – biochemical, fluorescence polarization, dose response (AID 1964);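 further: purified POS-1 fused to maltose binding protein made in E. coli; potency of compounds blocking POS-1 binding to fluorescent RNA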
# T1 sequence (G5EF15 whole entry): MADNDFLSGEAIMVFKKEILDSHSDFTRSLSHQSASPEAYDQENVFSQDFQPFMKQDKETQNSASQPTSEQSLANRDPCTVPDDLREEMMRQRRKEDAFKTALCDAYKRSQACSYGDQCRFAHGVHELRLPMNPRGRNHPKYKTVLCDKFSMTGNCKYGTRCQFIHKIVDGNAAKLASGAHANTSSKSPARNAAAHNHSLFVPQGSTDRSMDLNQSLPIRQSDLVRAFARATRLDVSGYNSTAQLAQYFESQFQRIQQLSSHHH
# [2] = target: T2, Zinc finger protein mex-5 (Caenorhabditis elegans, UniProt Q9XUB2); assay: potency of MEX-5 RNA-binding blockers – biochemical, C. elegans, fluorescence polarization, dose response (AID 1960)
# T2 sequence (Q9XUB2 whole entry): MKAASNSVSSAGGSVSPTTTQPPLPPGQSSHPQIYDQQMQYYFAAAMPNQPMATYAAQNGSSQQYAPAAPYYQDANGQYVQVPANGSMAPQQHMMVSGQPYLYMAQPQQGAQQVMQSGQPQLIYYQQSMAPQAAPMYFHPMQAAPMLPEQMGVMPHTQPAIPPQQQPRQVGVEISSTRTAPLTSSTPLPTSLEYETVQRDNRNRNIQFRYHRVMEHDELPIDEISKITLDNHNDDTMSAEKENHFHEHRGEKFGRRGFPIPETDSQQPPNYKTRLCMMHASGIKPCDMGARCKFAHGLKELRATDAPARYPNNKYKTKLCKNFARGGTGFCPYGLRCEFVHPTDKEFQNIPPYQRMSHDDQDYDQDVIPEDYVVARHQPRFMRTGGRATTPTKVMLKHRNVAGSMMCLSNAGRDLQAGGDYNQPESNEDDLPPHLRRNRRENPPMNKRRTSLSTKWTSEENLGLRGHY
# [3] = target: Sphingosine 1-phosphate receptor 4 (Homo sapiens, UniProt O95977); assay: Fluorescence dose response cell-based high throughput screening assay for antagonists of the Sphingosine 1-Phosphate Receptor 4 (S1P4). [Related pubchem assays: 1524 (Confirmation in triplicates.), 1510 (Primary screen.)]; format: functional
# Sequence of Sphingosine 1-phosphate receptor 4 (O95977 whole entry): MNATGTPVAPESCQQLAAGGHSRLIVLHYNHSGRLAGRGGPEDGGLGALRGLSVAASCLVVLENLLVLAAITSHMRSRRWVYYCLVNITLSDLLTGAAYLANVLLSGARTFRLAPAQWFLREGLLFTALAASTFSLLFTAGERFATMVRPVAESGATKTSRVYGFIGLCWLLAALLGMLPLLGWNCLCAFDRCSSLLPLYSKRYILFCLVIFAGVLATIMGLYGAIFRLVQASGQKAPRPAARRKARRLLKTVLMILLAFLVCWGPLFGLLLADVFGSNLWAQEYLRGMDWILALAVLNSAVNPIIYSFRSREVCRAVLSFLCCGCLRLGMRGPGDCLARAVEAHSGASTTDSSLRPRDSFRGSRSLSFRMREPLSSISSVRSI
# [4] = fluconazole-exposed Candida albicans growth modulators – fluorescence, retest, confirmation (AID 2467); format: functional, cell-based
# [5] = microbe, parasite or virus in culture; format: functional; settings: Mycobacterium tuberculosis
# INS1 = assay: INS-1E survival protection against cytokine death – cell-based, luminescence, retest, dose response (AID 449756); format: functional; settings: Rattus norvegicus;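 further: cell death triggered by IL-1 beta plus TNF-alpha plus IFN-gamma mixture; protective hits raise ATP signal compared with cytokine alone wells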
# [6] = target: Heat shock protein HSP 90-alpha (Homo sapiens, UniProt P07900); format: functional, organism-based
# [7] = target: Sphingosine 1-phosphate receptor 1 (Homo sapiens, UniProt P21453); format: functional;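 further: Tango beta-arrestin reporter U2OS cells stimulated with S1P near its EC80; inhibitor potency meaning antagonism of receptor activation by the natural agonist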
# Sequence of Sphingosine 1-phosphate receptor 1 (P21453 whole entry): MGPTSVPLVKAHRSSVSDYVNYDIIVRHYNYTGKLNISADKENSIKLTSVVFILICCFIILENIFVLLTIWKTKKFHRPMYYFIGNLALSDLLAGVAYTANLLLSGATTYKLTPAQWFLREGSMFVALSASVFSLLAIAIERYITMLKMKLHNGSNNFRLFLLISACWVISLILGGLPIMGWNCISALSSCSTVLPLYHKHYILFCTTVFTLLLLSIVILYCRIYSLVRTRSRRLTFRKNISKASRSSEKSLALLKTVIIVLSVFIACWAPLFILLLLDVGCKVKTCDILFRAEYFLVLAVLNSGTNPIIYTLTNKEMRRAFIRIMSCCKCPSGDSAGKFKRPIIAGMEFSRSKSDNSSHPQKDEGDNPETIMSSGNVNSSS
# [8] = target: T3, Heat shock factor protein 1 (Mus musculus, UniProt P38532); assay: decrease of HSF1-responsive luciferase luminescence – cell-based, NIH3T3, dose retest, confirmation (AID 2382); format: functional;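 further: NIH3T3 fibroblasts with HSF1-driven luciferase reporter stressed by proteasome inhibitor MG132; luminescence from HSF1-driven luciferase expression after 8 hours of MG132 stress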
# T3 sequence (P38532 whole entry): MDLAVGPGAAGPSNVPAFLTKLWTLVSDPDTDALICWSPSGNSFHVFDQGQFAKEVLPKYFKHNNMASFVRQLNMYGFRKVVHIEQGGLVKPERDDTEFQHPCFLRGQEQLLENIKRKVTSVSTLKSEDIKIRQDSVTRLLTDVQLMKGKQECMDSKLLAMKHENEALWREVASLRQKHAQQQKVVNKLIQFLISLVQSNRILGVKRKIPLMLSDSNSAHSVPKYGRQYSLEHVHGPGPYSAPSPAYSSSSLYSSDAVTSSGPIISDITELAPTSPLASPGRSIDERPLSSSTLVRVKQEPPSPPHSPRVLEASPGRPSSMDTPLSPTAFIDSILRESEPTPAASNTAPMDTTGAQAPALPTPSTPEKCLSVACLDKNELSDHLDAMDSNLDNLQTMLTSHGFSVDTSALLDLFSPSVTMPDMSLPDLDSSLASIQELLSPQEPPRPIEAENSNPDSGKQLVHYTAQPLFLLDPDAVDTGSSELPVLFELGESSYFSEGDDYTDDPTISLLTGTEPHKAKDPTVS
# [9] = NIH-3T3 fibroblast cytotoxicity, dose response, cytotoxicity control, cell-based, fluorescence, Alamar Blue, secondary assay (AID 2327); format: functional;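 further: NIH-3T3 mouse fibroblasts cultured with fluconazole at 8 µg/mL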
SMILES,EC50 (Oxytocin receptor),EC50 (Vasopressin V1a receptor),EC50 [1],EC50 [2],IC50 [3],EC50 [4],CC50 [5],AC50 (INS1),AC50 [6],IC50 [7],EC50 [8],EC50 [9]
Cc1cc(C)c(/C=C2\C(=O)Nc3ccccc32)[nH]1 [SEMAXANIB],11.5 µM (not active),12.1 µM (not active),> 300 µM (not active),> 300 µM (not active),,,,,,,,
Cc1cc([N+](=O)[O-])c2ccccc2[n+]1[O-],,,,,0.22 µM (active),0.097 µM (active),< 0.16 µM (active),2.24 µM (active),< 0.195 µM (active),3.28 µM (active),6.35 µM (active),4.65 µM (inconclusive)
